The values below are quoted from earlier work in patent publication US7977373B2, “Prodrugs of ion channel modulating compounds and uses thereof” (Cardiome Pharma Corp., priority 2004, dated 2011).

Turning to `CCCCCCCN(CC)CCCC(O)c1ccc(NS(C)(=O)=O)cc1` (centres unmarked) [ibutilide], the “patients requiring cardioversion for refractory ventricular arrhythmias” value was approximately 1.7%. For the same compound, the “risk of ventricular proarrhythmia” value (estimated, patients) is reported as approximately 4.4%.
